Experimental data taken from patent publication US11365450B2, “Group classification and prognosis prediction system based on biological characteristics of gastric cancer” (Novomics Co., Ltd., priority 2017, dated 2022).
Entries after “also recorded” stand apart in the source; their conditions may differ.

Columns and labels:
Type in all cases: cell-based, Human
Hs746T cells [1] = experiment: invasion assay (HUVEC monolayer transwell); conditions: LY2157299 50 μM; 48 hours incubation
Protocol: Invasion assay: For the assay, 2×10^4 HUVEC cells were placed in a culture medium (M199) in a fibronectin-coated transwell, followed by coating the bottom of the transwell with 0.2% gelatin and cell culture for 48 hours until monolayer formation. Thereafter, 1×10^5/50 μl Hs746T and NCI-N87 cells containing FBS-free CellTracker™ (Molecular Probes, C2925) were separately added to the transwell. A culture medium containing 10% FBS was added to the lower chamber. After incubation for 48 hours, upper cells of the membrane were removed using a cotton swab. Cells on the lower membrane were lysed in 200 μl of a lysis buffer at room temperature for 2 hours to 3 hours. Fluorescence was measured with Ex/Em 492/517. To examine the effect of a TGF-β inhibitor on cell invasion ability, 50 μM of LY2157299 (AdooQ, California, USA) was administered.

Hs746T cells [2] = experiment: in vitro scratch wound-healing (migration) assay; conditions: LY2157299 50 μM; wound width after 72 hours
Protocol: Migration assay: Hs746T and NCI-N87 cells were grown into monolayers in a culture medium containing 10% FBS and 1% antibiotics. When confluency reached 70%, the cell monolayers were scratched with a 100-μl pipette tip. After 72 hours, the wound width was measured and normalized by the wound width measured immediately after scratching. LY2157299 (50 μM) was administered to evaluate the effect of the TGF-β inhibitor on cell migration.

Hs746T cells [3] = experiment: in vitro tumor spheroid formation assay; conditions: LY2157299 50 μM; 30 days of cell culture
Protocol: Tumor spheroid formation assay: Ten cells were cultured in 50 μl of DMEM/F12 (Gibco) supplemented with bFGF, EGF, B27, 10% FBS, and 1% antibiotics in a 96-well plate. After 30 days of cell culture, the number of tumor spheroids in each well was counted. In addition, LY2157299 (50 μM) was administered to examine the effect of the TGF-β inhibitor on tumor sphere formation.

Cc1cccc(-c2nn3c(c2-c2ccnc4ccc(C(N)=O)cc24)CCC3)n1 [LY2157299]
delayed; also recorded: suppression: invasion ability of Hs746T cells (Hs746T cells [1]) | wound-healing ability of Hs746T cells (Hs746T cells [2]) | 3D spheroid formation ability of Hs746T cells (Hs746T cells [3])
